Assay results published in US9328099B2, “Cyanomethylpyrazole carboxamides as janus kinase inhibitors” (Merck Sharp & Dohme Corp., priority 2011, dated 2016).

What follows are compounds tested against JAK1 (Homo sapiens (Human), UniProt P23458) (assay: Jak Biochemical HTRF Assay, JAK1). Settings: HTRF biochemical assay, GST-tagged catalytic domain; top concentration tested […]; read-out: JAK1 IC50.
Description: Jak Biochemical HTRF Assay Protocol
Subsequent reagent additions employed an Agilent Bravo.

Chain of JAK1 (P23458 875-1153): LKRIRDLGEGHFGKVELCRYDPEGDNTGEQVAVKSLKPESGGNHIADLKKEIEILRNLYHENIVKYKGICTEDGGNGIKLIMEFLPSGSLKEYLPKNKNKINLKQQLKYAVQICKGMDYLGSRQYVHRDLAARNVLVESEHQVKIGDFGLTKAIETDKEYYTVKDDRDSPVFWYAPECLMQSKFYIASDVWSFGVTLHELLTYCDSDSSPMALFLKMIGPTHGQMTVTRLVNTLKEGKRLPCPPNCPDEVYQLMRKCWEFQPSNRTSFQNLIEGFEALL

Point of comparison: `N#CCC1(n2cc(C(N)=O)c(Nc3ccc(F)cc3)n2)CCSCC1` [Example 7, 1-(4-(Cyanomethyl)tetrahydro-2H-thiopyran-4-yl)-3-((4-fluorophenyl)amino)-1H-pyrazole-4-carboxamide], IC50 8 nM. Against it:
- CC(C)(O)c1cccc(N2CCC(CC#N)(n3cc(C(N)=O)c(Nc4ccc(F)cc4)n3)CC2)n1 [Example 3-7, 1-{4-(cyanomethyl)-1-[6-(1-hydroxy-1-methylethyl)pyridin-2-yl]piperidin-4-yl}-3-[(4-fluorophenyl)amino]-1H-pyrazole-4-carboxamide] — 27-fold lower, 0.3 nM
- CCc1ccc(NC(=O)N2CC(CC#N)(n3cc(C(N)=O)c(Nc4ccccc4)n3)C2)cc1 [Example 38-34, 1-{3-(cyanomethyl)-1-[(4-ethylphenyl)carbamoyl]azetidin-3-yl}-3-(phenylamino)-1H-pyrazole-4-carboxamide] — 4-fold lower, 2 nM
- N#CCC1(n2cc(C(N)=O)c(Nc3ccnc(F)c3)n2)CCC(Nc2ccccc2F)CC1 (stereo not drawn) [Example 40-17, Cis or trans 1-{1-(cyanomethyl)-4-[(2-fluorophenyl)amino]cyclohexyl}-3-[(2-fluoropyridin-4-yl)amino]-1H-pyrazole-4-carboxamide] — 200-fold lower, 0.04 nM
- N#CCC1(n2cc(C(N)=O)c(Nc3ccc(F)cc3)n2)CCN(c2ccc(F)nc2)CC1 [Example 3-22, 1-[4-(cyanomethyl)-1-(6-fluoropyridin-3-yl)piperidin-4-yl]-3-[(4-fluorophenyl)amino]-1H-pyrazole-4-carboxamide] — 20-fold lower, 0.4 nM
- N#CCC1(n2cc(C(N)=O)c(Nc3ccc(C4CC4)nc3)n2)CCN(C(=O)OCC(F)F)CC1 [Example 9-40, 2,2-difluoroethyl 4-{4-carbamoyl-3-[(6-cyclopropylpyridin-3-yl)amino]-1H-pyrazol-1-yl}-4-(cyanomethyl)piperidine-1-carboxylate] — 11-fold lower, 0.7 nM
- N#CCC1(n2cc(C(N)=O)c(Nc3ccc(F)cc3)n2)CCC(NCC(F)(F)F)CC1 (stereo not drawn) [Example 40-101, Cis or trans 1-{1-(cyanomethyl)-4-[(2,2,2-trifluoroethyl)amino]cyclohexyl}-3-[(4-fluorophenyl)amino]-1H-pyrazole-4-carboxamide] — 2.2-fold higher, 18 nM
- N#CCC1(n2cc(C(N)=O)c(Nc3ccccc3)n2)CN(C(=O)c2ccccn2)C1 [Example 34-38, 1-[3-(cyanomethyl)-1-(pyridin-2-ylcarbonyl)azetidin-3-yl]-3-(phenylamino)-1H-pyrazole-4-carboxamide] — 7.4-fold higher, 59 nM
- CC(F)(F)C(=O)N1CC[C@@](CC#N)(n2cc(C(N)=O)c(Nc3ccc(F)nc3)n2)[C@@H](F)C1 (single isomer, unassigned) [Example 43-4, 1-((3R,4R or 3S,4S)-4-(cyanomethyl)-1-(2,2-difluoropropanoyl)-3-fluoropiperidin-4-yl)-3-((6-fluoropyridin-3-yl)amino)-1H-pyrazole-4-carboxamide] — 160-fold lower, 0.05 nM
- CS(=O)(=O)c1ccc(Nc2nn(C3(CC#N)CN(C(=O)OC4CCCC4)C3)cc2C(N)=O)cc1 [Example 30-74, cyclopentyl 3-(4-carbamoyl-3-{[4-(methylsulfonyl)phenyl]amino}-1H-pyrazol-1-yl)-3-(cyanomethyl)azetidine-1-carboxylate] — within 1.5-fold, 6 nM
- CCOC(=O)C(C)NC(=O)N1CC(CC#N)(n2cc(C(N)=O)c(Nc3ccccc3)n2)C1 (centres unmarked) [Example 38-9, ethyl N-({3-[4-carbamoyl-3-(phenylamino)-1H-pyrazol-1-yl]-3-(cyanomethyl)azetidin-1-yl}carbonyl)alaninate] — 4.8-fold higher, 38 nM
- N#CCC1(n2cc(C(N)=O)c(Nc3ccnc(F)c3)n2)CCN(C(=O)OC2CCOC2)CC1 (centres unmarked) [Example 30-16, tetrahydrofuran-3-yl 4-{4-carbamoyl-3-[(2-fluoropyridin-4-yl)amino]-1H-pyrazol-1-yl}-4-(cyanomethyl)piperidine-1-carboxylate] — 8.9-fold lower, 0.9 nM
- N#CCC1(n2cc(C(N)=O)c(Nc3ccccc3)n2)CN(C(=O)OC2CCOCC2)C1 [Example 30-63, tetrahydro-2H-pyran-4-yl 3-[4-carbamoyl-3-(phenylamino)-1H-pyrazol-1-yl]-3-(cyanomethyl)azetidine-1-carboxylase] — within 1.5-fold, 11 nM
- N#CCC1(n2cc(C(N)=O)c(Nc3ccccc3)n2)CCN(C(=O)OCCN2CCOCC2)CC1 [Example 30-41, 2-morpholin-4-ylethyl 4-[4-carbamoyl-3-(phenylamino)-1H-pyrazol-1-yl]-4-(cyanomethyl)piperidine-1-carboxylate] — 3.9-fold higher, 31 nM
- N#CCC1(n2cc(C(N)=O)c(Nc3ccc(F)cc3)n2)CCN(c2cccc(F)c2)CC1 [Example 3-27, 1-[4-(cyanomethyl)-1-(3-fluorophenyl)piperidin-4-yl]-3-[(4-fluorophenyl)amino]-1H-pyrazole-4-carboxamide] — 8-fold lower, 1 nM
- N#CCC1(n2cc(C(N)=O)c(Nc3ccnc(F)c3)n2)CCC(Nc2ccccc2)CC1 (stereo not drawn) [Example 40-86, Cis or trans 1-[1-(cyanomethyl)-4-(phenylamino)cyclohexyl]-3-[(2-fluoropyridin-4-yl)amino]-1H-pyrazole-4-carboxamide] — 130-fold lower, 0.06 nM
- CC(C)(C)OC(=O)N1CCC(CC#N)(n2cc(C(N)=O)c(Nc3ccc(S(=O)(=O)C(F)(F)F)cc3)n2)CC1 [Example 9-15, tert-butyl 4-[4-carbamoyl-3-({4-[(trifluoromethyl)sulfonyl]phenyl}amino)-1H-pyrazol-1-yl]-4-(cyanomethyl)piperidine-1-carboxylate] — 4-fold lower, 2 nM
- N#CCC1(n2cc(C(N)=O)c(Nc3ccc(F)cc3)n2)CCC(Nc2ccc(F)c(F)c2)CC1 (stereo not drawn) [Example 40-35, Cis or trans 1-{1-(cyanomethyl)-4-[(3,4-difluorophenyl)amino]cyclohexyl}-3-[(4-fluorophenyl)amino]-1H-pyrazole-4-carboxamide] — 10-fold lower, 0.8 nM
- N#CCC1(n2cc(C(N)=O)c(Nc3ccc(F)cc3)n2)CCN(c2cncnc2)CC1 [Example 3-24, 1-[4-(cyanomethyl)-1-pyrimidin-5-ylpiperidin-4-yl]-3-[(4-fluorophenyl)amino]-1H-pyrazole-4-carboxamide] — 80-fold lower, 0.1 nM
- N#CCC1(n2cc(C(N)=O)c(Nc3ccc(F)cc3)n2)CCN(C(=O)CC(F)(F)F)CC1 [Example 35-1, 1-(4-(Cyanomethyl)-1-(3,3,3-trifluoropropanoyl)piperidin-4-yl)-3-(4-fluorophenylamino)-1H-pyrazole-4-carboxamide] — 80-fold lower, 0.1 nM
- N#CCC1(n2cc(C(N)=O)c(Nc3ccc(F)cc3)n2)CCN(c2cncc3ccccc23)CC1 [Example 3-2, 1-[4-(cyanomethyl)-1-isoquinolin-4-ylpiperidin-4-yl]-3-[(4-fluorophenyl)amino]-1H-pyrazole-4-carboxamide] — within 1.5-fold, 6 nM
- N#CCC1(n2cc(C(N)=O)c(Nc3ccnc(F)c3)n2)CCC(NCc2cccc(O)c2)CC1 (stereo not drawn) [Example 41-5, Cis or trans 1-{1-(cyanomethyl)-4-[(3-hydroxybenzyl)amino]cyclohexyl}-3-[(2-fluoropyridin-4-yl)amino]-1H-pyrazole-4-carboxamide] — within 1.5-fold, 10 nM
- N#CCC1(n2cc(C(N)=O)c(Nc3ccccc3)n2)CCN(Cc2cccc(C#N)c2)CC1 [Example 21-3, 1-[1-(3-cyanobenzyl)-4-(cyanomethyl)piperidin-4-yl]-3-(phenylamino)-1H-pyrazole-4-carboxamide] — 9.9-fold higher, 79 nM
- N#CCC1(n2cc(C(N)=O)c(Nc3ccc(F)cc3)n2)CCC(NCc2ccc(C#N)cc2)CC1 (stereo not drawn) [Example 40-97, Cis or trans 1-{4-[(4-cyanobenzyl)amino]-1-(cyanomethyl)cyclohexyl}-3-[(4-fluorophenyl)amino]-1H-pyrazole-4-carboxamide] — 3.1-fold higher, 25 nM
- CC(C)(C)OC(=O)N1CCC(CC#N)(n2cc(C(N)=O)c(Nc3ccnc(C(N)=O)c3)n2)CC1 [Example 9-27, tert-butyl 4-{4-carbamoyl-3-[(2-carbamoylpyridin-4-yl)amino]-1H-pyrazol-1-yl}-4-(cyanomethyl)piperidine-1-carboxylate] — 20-fold lower, 0.4 nM
- N#CCC1(n2cc(C(N)=O)c(Nc3ccccc3)n2)CCN(C(=O)c2cnccn2)CC1 [Example 34-11, 1-[4-(cyanomethyl)-1-(pyrazin-2-ylcarbonyl)piperidin-4-yl]-3-(phenylamino)-1H-pyrazole-4-carboxamide] — 1.5-fold higher, 12 nM
- N#CCC1(n2cc(C(N)=O)c(Nc3ccnc(F)c3)n2)CCN(C(=O)OC2CCOC2)CC1 (single isomer, unassigned) [Example 49-2, (3S or 3R)-tetrahydrofuran-3-yl 4-{4-carbamoyl-3-[(2-fluoropyridin-4-yl)amino]-1H-pyrazol-1-yl}-4-(cyanomethyl)piperidine-1-carboxylate] — 20-fold lower, 0.4 nM
- N#CCC1(n2cc(C(N)=O)c(Nc3ccnc(F)c3)n2)CCN(CCc2ccccc2)CC1 [Example 22-64, 1-[4-(cyanomethyl)-1-(2-phenylethyl)piperidin-4-yl]-3-[(2-fluoropyridin-4-yl)amino]-1H-pyrazole-4-carboxamide] — 2-fold lower, 4 nM
- CC(C)(C)OC(=O)N1CCC(CC#N)(n2cc(C(N)=O)c(Nc3cccc(Br)c3)n2)CC1 [Example 12-1, tert-Butyl 4-{3-[(3-bromophenyl)amino]-4-carbamoyl-1H-pyrazol-1-yl}-4-(cyanomethyl)piperidine-1-carboxylate] — 8-fold lower, 1 nM
- CC(C)(O)c1ccc(Nc2nn(C3(CC#N)CCN(C(=O)OCC(F)(F)F)CC3)cc2C(N)=O)cn1 [Example 10-1, 2,2,2-Trifluoroethyl 4-(4-carbamoyl-3-(6-(2-hydroxypropan-2-yl)pyridin-3-ylamino)-1H-pyrazol-1-yl)-4-(cyanomethyl)piperidine-1-carboxylate] — 80-fold lower, 0.1 nM

Same assay, conditions: read-out: JAK1 IC50

Point of comparison: `N#CCC1(n2cc(C(N)=O)c(Nc3ccc(S(=O)(=O)C(F)F)cc3)n2)CCC(Nc2ccccc2O)CC1` (stereo not drawn) [Example 40-48, Cis or trans 1-{1-(cyanomethyl)-4-[(2-hydroxyphenyl)amino]cyclohexyl}-3-({4-[(difluoromethyl)sulfonyl]phenyl}amino)-1H-pyrazole-4-carboxamide], IC50 0.4 nM. Against it:
- N#CCC1(n2cc(C(N)=O)c(Nc3ccc(S(=O)(=O)C(F)F)cc3)n2)CCC(Nc2cccnc2)CC1 (stereo not drawn) [Example 40-8, Cis or trans 1-[1-(cyanomethyl)-4-(pyridin-3-ylamino)cyclohexyl]-3-({4-[(difluoromethyl)sulfonyl]phenyl}amino)-1H-pyrazole-4-carboxamide] — within 1.5-fold, 0.3 nM
